{
  "source": "paper PMC11283233",
  "about": "“A comparative analysis of NADPH supply strategies in Saccharomyces cerevisiae: Production of D-xylitol from D-xylose as a case study” (Metabolic Engineering Communications, 2024)",
  "key": {"[1]": {"target": "T1, Zwf1 (glucose-6-phosphate dehydrogenase) (Saccharomyces cerevisiae, UniProt P11412, DEL59-59)", "T1 construct": "full-length, untagged; overexpressed from truncated HXT7 promoter at the genomic ZWF1 locus; crude yeast extract", "T1 sequence (P11412 with tags, fused parts or gaps DEL59-59)": "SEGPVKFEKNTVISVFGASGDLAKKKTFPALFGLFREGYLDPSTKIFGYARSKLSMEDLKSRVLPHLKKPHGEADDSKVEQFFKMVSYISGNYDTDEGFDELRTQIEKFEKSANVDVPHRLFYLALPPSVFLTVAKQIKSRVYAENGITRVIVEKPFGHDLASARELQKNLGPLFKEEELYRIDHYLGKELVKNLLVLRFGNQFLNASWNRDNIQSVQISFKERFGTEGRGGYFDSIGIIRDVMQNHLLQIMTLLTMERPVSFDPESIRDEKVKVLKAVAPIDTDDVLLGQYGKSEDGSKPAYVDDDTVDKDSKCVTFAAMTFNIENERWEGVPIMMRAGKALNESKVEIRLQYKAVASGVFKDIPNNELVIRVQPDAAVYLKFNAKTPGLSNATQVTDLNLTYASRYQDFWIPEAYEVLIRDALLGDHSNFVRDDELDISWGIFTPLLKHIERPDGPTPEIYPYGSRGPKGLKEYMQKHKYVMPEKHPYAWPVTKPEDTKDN", "assay": "NADP+ reduction at […] nm, crude extract of overexpressing strain PRY48 (ZWF1*)", "format": "biochemical", "conditions": "2.5 mM glucose-6-phosphate, 0.67 mM NADP+, 50 mM imidazole pH 7.0, 100 mM KCl, 10 mM MgCl2, 0.1 mM EDTA"}, "[2]": {"target": "T2, Zwf1 (glucose-6-phosphate dehydrogenase) (Saccharomyces cerevisiae, UniProt P11412)", "T2 construct": "full-length, untagged; overexpressed from truncated HXT7 promoter at the genomic ZWF1 locus; crude yeast extract", "T2 sequence (P11412 2-505)": "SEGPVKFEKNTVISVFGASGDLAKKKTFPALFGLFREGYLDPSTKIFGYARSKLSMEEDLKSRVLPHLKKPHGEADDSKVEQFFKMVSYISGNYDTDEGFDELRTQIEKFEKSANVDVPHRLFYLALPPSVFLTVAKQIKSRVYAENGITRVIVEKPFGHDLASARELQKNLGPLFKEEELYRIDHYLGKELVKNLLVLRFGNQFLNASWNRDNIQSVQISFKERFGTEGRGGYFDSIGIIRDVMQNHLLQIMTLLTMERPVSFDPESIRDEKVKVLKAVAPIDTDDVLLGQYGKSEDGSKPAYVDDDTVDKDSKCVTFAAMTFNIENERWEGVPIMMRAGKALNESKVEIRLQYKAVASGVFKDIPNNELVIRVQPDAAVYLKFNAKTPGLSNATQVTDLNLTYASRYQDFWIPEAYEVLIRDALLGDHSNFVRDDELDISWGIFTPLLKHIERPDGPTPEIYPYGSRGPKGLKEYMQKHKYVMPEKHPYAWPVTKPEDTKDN", "assay": "NADP+ reduction at […] nm, crude extract of overexpressing strain PRY63", "format": "biochemical", "conditions": "2.5 mM glucose-6-phosphate, 0.67 mM NADP+, 50 mM imidazole pH 7.0, 100 mM KCl, 10 mM MgCl2, 0.1 mM EDTA"}, "Gre3 (coGRE3, ScGRE3)": {"target": "T3, Gre3 (coGRE3, ScGRE3) (Saccharomyces cerevisiae, UniProt P38715)", "T3 construct": "full-length, codon-optimized or native gene on p425H7, expressed in S. cerevisiae PRY39 (gre3 deleted); intact cells", "T3 sequence (P38715 2-327)": "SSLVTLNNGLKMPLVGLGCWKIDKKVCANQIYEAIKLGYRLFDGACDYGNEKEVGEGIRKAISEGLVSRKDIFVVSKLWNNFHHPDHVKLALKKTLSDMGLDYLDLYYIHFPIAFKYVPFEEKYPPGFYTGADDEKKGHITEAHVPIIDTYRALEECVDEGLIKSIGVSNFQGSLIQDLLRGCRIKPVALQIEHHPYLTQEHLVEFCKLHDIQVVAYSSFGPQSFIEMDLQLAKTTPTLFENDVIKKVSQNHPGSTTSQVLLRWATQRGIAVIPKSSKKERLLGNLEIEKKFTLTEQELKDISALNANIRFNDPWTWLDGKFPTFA", "assay": "xylitol formation in cells, HPLC, versus empty vector", "format": "cell-based", "conditions": "whole-cell fermentation, SC medium, 30 g/L glucose, 20 g/L xylose, 30 °C; NADPH-dependent"}, "Xyl1 (coXYL1)": {"target": "T4, Xyl1 (coXYL1) (Scheffersomyces stipitis, UniProt P31867)", "T4 construct": "full-length, codon-optimized gene on p425H7, expressed in S. cerevisiae PRY39 (gre3 deleted); intact cells", "T4 sequence (P31867 1-318)": "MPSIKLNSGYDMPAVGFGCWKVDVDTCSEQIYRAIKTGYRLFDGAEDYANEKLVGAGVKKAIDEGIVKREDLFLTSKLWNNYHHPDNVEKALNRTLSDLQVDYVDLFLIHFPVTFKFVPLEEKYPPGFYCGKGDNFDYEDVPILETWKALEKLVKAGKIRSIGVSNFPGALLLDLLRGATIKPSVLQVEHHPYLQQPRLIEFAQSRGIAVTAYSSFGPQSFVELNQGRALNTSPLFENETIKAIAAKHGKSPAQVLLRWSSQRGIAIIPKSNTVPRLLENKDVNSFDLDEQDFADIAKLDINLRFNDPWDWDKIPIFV", "assay": "xylitol formation in cells, HPLC, versus empty vector", "format": "cell-based", "conditions": "whole-cell fermentation, SC medium, 30 g/L glucose, 20 g/L xylose, 30 °C; NADPH-dependent"}},
  "data": [
    {"compound": "NC(=O)c1ccc[n+]([C@@H]2O[C@H](COP(=O)(O)OP(=O)(O)OC[C@H]3O[C@@H](n4cnc5c(N)ncnc54)[C@H](OP(=O)(O)O)[C@@H]3O)[C@@H](O)[C@H]2O)c1", "note": "[NADP^+]", "values": [
      {"measurement": "NADP+ reduction at 340 nm, crude extract of overexpressing strain PRY48 (ZWF1*)", "setting": "[1]", "value": "the deletion of Glu59 apparently led to a higher Zwf1 activity"},
      {"measurement": "NADP+ reduction at 340 nm, crude extract of overexpressing strain PRY63", "setting": "[2]", "value": "The reduction of NADP^+ was recorded by continuously measuring the change of the absorbance"}
    ]},
    {"compound": "O=P(O)(O)OC[C@H]1OC(O)[C@H](O)[C@@H](O)[C@@H]1O", "note": "(some centres unmarked) [glucose-6-phosphate]", "values": [
      {"measurement": "NADP+ reduction at 340 nm, crude extract of overexpressing strain PRY63", "setting": "[2]", "value": "A G6PDH assay was performed in crude extracts from the engineered strains"}
    ]},
    {"compound": "OC1OC[C@@H](O)[C@H](O)[C@H]1O", "note": "(some centres unmarked) [xylose]", "values": [
      {"measurement": "xylitol formation in cells, HPLC, versus empty vector", "setting": "Gre3 (coGRE3, ScGRE3)", "value": "The expression of all XR constructs led to considerably high xylitol titers"},
      {"measurement": "xylitol formation in cells, HPLC, versus empty vector", "setting": "Xyl1 (coXYL1)", "value": "The expression of all XR constructs led to considerably high xylitol titers"}
    ]}
  ]
}
